Values joined by “and” are separate entries in the source; they are usually repeats but may differ in a detail not shown here. Identical values can stand only once. Like-named read-outs stand apart in the source and are kept apart here.
Key:
HCMV = assay: CMV antiviral assay, cell culture based ELISA in human foreskin fibroblast cells; parameters: species or system human cytomegalovirus (HCMV)
Experimental: Compounds are tested for direct antiviral activity against HCMV using a cell culture based assay. An ELISA (enzyme linked immunosorbant assay) format is used as described in W. A. Tatarowicz, N. S. Lurain and K. D. Thompson, J. Virol. Meth., 35:207-215 (1991). Human foreskin fibroblast cells are infected with HCMV at a multiplicity of 0.025 plaque forming units per microtiter plate well for a period of 90 minutes. The virus inocula is removed and a suspension of test compound prepared in tissue culture media is added for a period of 4 days. The growth media is aspirated and replaced with 95% ethanol to allow fixation of virus infected cultures. The ethanol is removed and the wells are washed twice with saline. A solution of 2% dry fat milk, 1% bovine sera albumin prepared in saline is added to wells to allow for non-specific binding of protein material to plastic surfaces for 1 hr. Murine monoclonal antibody prepared in saline directed against the late (65 KD) matrix protein of HCMV is added to test wells for 1 hr. The wells are washed twice and antibody, conjugated with the enzyme horse radish peroxidase, with specificity against murine IgG is added to test wells for 1 hr. Test wells are washed three times with saline. A solution of o-phenylene diamine, a substrate for horse radish peroxidase is added for 15 minutes at which time enzymatic conversion occurs indicating reactivity of the enzyme with its substrate. This conversion is evident as a color reaction which was spectrophoretically monitored at 490 nm. The intensity of the color indirectly reflects the presence of antibody directed against the viral 65 KD matrix antigen. The presence of the viral matrix antigen refects the amount of HCMV replication. Thus, test wells, in which little viral replication has occurred, would have little or no antibody binding and are present with low levels of color. Non-infected wells serve as the assay background control.

CMV polymerase = molecular target: T1, CMV polymerase (Human cytomegalovirus, UniProt P08546); assay: modified version of the HCMV polymerase assay (100% DMSO dilution, DTT, different enzyme lot); type: biochemical; conditions: Table 6
T1 construct: made in house; host or cells: recombinant baculovirus-infected SF-9 cells
T1 sequence (P08546 whole entry): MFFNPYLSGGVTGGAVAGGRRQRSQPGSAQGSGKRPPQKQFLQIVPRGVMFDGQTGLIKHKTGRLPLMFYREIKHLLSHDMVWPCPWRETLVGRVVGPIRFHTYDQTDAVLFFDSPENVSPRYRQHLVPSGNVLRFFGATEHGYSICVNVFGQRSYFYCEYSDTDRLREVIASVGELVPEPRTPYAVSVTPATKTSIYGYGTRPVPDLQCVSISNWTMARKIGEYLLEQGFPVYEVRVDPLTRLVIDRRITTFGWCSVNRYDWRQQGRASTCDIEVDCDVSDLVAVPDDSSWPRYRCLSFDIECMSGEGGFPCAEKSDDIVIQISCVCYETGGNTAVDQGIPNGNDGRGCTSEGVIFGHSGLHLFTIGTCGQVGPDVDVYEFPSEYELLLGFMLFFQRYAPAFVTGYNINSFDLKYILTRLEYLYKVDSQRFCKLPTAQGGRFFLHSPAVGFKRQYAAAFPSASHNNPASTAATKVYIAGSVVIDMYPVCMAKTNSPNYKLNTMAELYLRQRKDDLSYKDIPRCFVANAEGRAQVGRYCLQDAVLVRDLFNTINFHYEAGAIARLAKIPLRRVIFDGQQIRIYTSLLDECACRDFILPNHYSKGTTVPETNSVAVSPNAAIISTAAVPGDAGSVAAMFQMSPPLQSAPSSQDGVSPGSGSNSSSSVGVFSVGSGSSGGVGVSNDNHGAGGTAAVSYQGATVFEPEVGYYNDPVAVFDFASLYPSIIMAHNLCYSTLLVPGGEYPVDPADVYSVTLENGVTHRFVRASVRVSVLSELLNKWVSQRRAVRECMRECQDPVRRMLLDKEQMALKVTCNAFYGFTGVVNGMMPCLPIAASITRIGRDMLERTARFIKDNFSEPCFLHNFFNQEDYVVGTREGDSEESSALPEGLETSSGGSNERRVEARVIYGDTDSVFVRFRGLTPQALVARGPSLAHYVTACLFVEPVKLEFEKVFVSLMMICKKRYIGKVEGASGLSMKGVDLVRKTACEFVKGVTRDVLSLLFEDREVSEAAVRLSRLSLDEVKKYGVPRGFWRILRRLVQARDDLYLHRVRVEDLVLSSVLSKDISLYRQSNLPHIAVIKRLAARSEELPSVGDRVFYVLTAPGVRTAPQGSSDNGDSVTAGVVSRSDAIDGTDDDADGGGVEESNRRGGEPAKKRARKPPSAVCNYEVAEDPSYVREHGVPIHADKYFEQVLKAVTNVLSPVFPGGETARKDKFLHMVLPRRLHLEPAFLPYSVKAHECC
Experimental: The HCMV polymerase assay is performed using a scintillation proximity assay (SPA) as described in several references, such as N. D. Cook, et al., Pharmaceutical Manufacturing International, pages 49-53 (1992); K. Takeuchi, Laboratory Practice, September issue (1992); U.S. Pat. No. 4,568,649 (1986); which are incorporated by reference herein. Reactions are performed in 96-well plates. The assay is conducted in 100 μl volume with 5.4 mM HEPES (pH 7.5), 11.7 mM KCl, 4.5 mM MgCl2, 0.36 mg/ml BSA, and 90 nM ^3H-dTTP. Assays are run with and without CHAPS, (3-[(3-Cholamidopropyl)-dimethylammonio]-1-propane-sulfonate) at a final concentration of 2 mM. HCMV is diluted in enzyme dilution buffer containing 50% glycerol, 250 mM NaCl, 10 mM HEPES (pH 7.5), 100 pg/ml BSA, and 0.01% sodium azide. The HCMV polymerase, which is expressed in recombinant baculovirus-infected SF-9 cells and purified according to literature procedures, is added at 10% (or 10 μl) of the final reaction volume, i.e., 100 μl. Compounds are diluted in 50% DMSO and 10 μl are added to each well. Control wells contain an equivalent concentration of DMSO. Unless noted otherwise, reactions are initiated via the addition of 6 nM biotinylated poly(dA)-oligo(dT) template/primer to reaction mixtures containing the enzyme, substrate, and compounds of interest. Plates are incubated in a 25° C. of 37° C. H2O bath and terminated via the addition of 40 μl/reaction of 0.5 M EDTA (pH 8) per well. Reactions are terminated within the time-frame during which substrate incorporation is linear and varied depending upon the enzyme and conditions used, i.e., 30 min. for HCMV polymerase. Ten μl of streptavidin-SPA beads (20 mg/ml in PBS/10% glycerol) are added following termination of the reaction. Plates are incubated 10 min. at 37° C., then equilibrated to room temperature, and counted on a Packard Topcount. Linear regressions are performed and IC50's are calculated using computer software. Results of the testing of compounds of the present invention in this assay are shown in Tables 1, 2, 5, 9, 10, 11, 13 (except for the last compound which was tested under modified conditions) and 14 below.
A modified version of the above HCMV polymerase assay is performed as described above, but with the following changes: Compounds are diluted in 100% DMSO until final dilution into assay buffer. In the previous assay, compounds are diluted in 50% DMSO. 4.5 mM dithiotherotol (DTT) is added to the polymerase buffer.

[1] = antiviral, Table 4, read-out: IC50 (AV)
[2] = Human betaherpesvirus 5, Fibroblast, antiviral, Table 4, read-out: IC50 (AV)
[3] = Human betaherpesvirus 5, Fibroblast, read-out: CMV Antiviral Assay IC50 (AV), Table 12
[4] = read-out: CMV Antiviral Assay IC50 (AV), Table 12

CC(C)(C)[Si](C)(C)c1cc(Cl)c2cccnc2c1O [Example 41, 5-Chloro-7-[(1,1-dimethylethyl)dimethylsilyl]-8-quinolinol]
melting point: 107 to 108 °C | % Inh −AV (HCMV; Conc 1.00e+001 uM, Table 4): 92.0% | % Inh −AV (HCMV; Conc 2.00e+000 uM, Table 4): 56.0% | % Inh −AV (HCMV; Conc 2.00e+001 uM, Table 4): 86.0% and 76.0% | % Inh −AV (HCMV; Conc 4.00e+000 uM, Table 4): 65.0% and 70.0% | % Inh −AV (HCMV; Conc 4.00e+001 uM, Table 4): 99.0% and 76.0% | % Inh −AV (HCMV; Conc 5.00e+001 uM, Table 4): 78.0% | % Inh −AV (HCMV; Conc 8.00e+000 uM, Table 4): 78.0% | IC50 (HCMV; [1]): 3.8 µM

CC(C)[Si](c1cc(Cl)c2cccnc2c1O)(C(C)C)C(C)C [Example 42]
melting point: 107 to 108 °C | % Inh −AV (HCMV; Conc 2.00e+001 uM, Table 4): 88.0% and 99.0% | % Inh −AV (HCMV; Conc 4.00e+000 uM, Table 4): 51.0% and 89.0% | % Inh −AV (HCMV; Conc 4.00e+001 uM, Table 4): 92.0% and 99.0% | % Inh −AV (HCMV; Conc 8.00e−001 uM, Table 4): 0.0% | IC50 (HCMV; [1]): 5.2 µM

CC(C)(C)[Si](c1ccccc1)(c1ccccc1)c1cc(Cl)c2cccnc2c1O [Example 43, 5-Chloro-7-[(1,1,-dimethylethyl)diphenylsilyl]-8-quinolinol]
melting point: 133 to 139 °C | % Inh −AV (HCMV; Conc 1.00e+001 uM, Table 4): 99.0% | % Inh −AV (HCMV; Conc 1.25e+000 uM, Table 4): 87.0% | % Inh −AV (HCMV; Conc 2.00e+001 uM, Table 4): 90.0% | % Inh −AV (HCMV; Conc 2.50e+000 uM, Table 4): 99.0% | % Inh −AV (HCMV; Conc 4.00e+000 uM, Table 4): 77.0% and 88.0% | % Inh −AV (HCMV; Conc 4.00e+001 uM, Table 4): 85.0% and 81.0% | % Inh −AV (HCMV; Conc 4.00e−001 uM, Table 4): 50.0% | % Inh −AV (HCMV; Conc 5.00e+000 uM, Table 4): 99.0% | % Inh −AV (HCMV; Conc 8.00e−001 uM, Table 4): 65.0% and 43.0% | IC50 (HCMV; [1]): 0.12 µM and 0.44 µM

C[Si](C)(C)c1cc(Cl)c2cccnc2c1O [Example 44, 5-Chloro-7-(trimethylsilyl)-8-quinolinol]
melting point: 109 to 111 °C | % Inh −AV (HCMV; Conc 4.00e+000 uM, Table 4): 65.0% and 59.0% | IC50 (HCMV; [2]): 2.7 µM

C[Si](C)(c1ccccc1)c1cc(Cl)c2cccnc2c1O [Example 45, 5-Chloro-7-(dimethylphenylsilyl)-8-quinolinol]
melting point: 101 to 103 °C | % Inh −AV (HCMV; Conc 2.00e+001 uM, Table 4): 83.0% | % Inh −AV (HCMV; Conc 4.00e+000 uM, Table 4): 75.0% | % Inh −AV (HCMV; Conc 4.00e+001 uM, Table 4): 89.0% | % Inh −AV (HCMV; Conc 8.00e−001 uM, Table 4): 39.0% | IC50 (HCMV; [2]): 1.2 µM

Cc1ccc2c(Cl)cc(S(=O)(=O)NCCc3ccc(NS(=O)(=O)c4c(C)noc4C)cc3)c(O)c2n1 [Example 65, 5-Chloro-8-hydroxy-2-methyl-N-[2-[4-[[(3,5-dimethyl-4-isoxazolyl)sulfonyl]amino]phenyl]ethyl]-7-quinoline-sulfonamide]
inhibition at 3.13 µM (CMV polymerase; Concentration 3.13 μM): -8% | inhibition at 6.25 µM (CMV polymerase; Concentration 6.25 μM): -8% | inhibition at 12.5 µM (CMV polymerase; Concentration 12.5 μM): -13% | inhibition at 25 µM (CMV polymerase; Concentration 25 μM): -21% | inhibition at 50 µM (CMV polymerase; Concentration 50 μM): -23% | inhibition at 100 µM (CMV polymerase; Concentration 100 μM): -23% | inhibition at 200 µM (CMV polymerase; Concentration 200 μM): -8% | IC50 (CMV polymerase; read-out: IC50): > 200 µM | melting point: 147 to 152 °C (dec.)

Cc1ccc2c(Cl)cc(S(=O)(=O)NCCc3ccc(NS(=O)(=O)c4ccccc4)cc3)c(O)c2n1 [Example 66, 5-Chloro-8-hydroxy-2-methyl-N-[2-[4-[(phenylsulfonyl)-amino]phenyl]ethyl]-7-quinolinesulfonamide]
inhibition at 6.25 µM (CMV polymerase; Concentration 6.25 μM): 41% | % Inhibition (CMV polymerase; Concentration 6.25 μM, 6.25 µM): 30% | inhibition at 25 µM (CMV polymerase; Concentration 25 μM): 57% | % Inhibition (CMV polymerase; Concentration 25 μM, 25 µM): 77% | inhibition at 50 µM (CMV polymerase; Concentration 50 μM): 64% | % Inhibition (CMV polymerase; Concentration 50 μM, 50 µM): 71% | inhibition at 100 µM (CMV polymerase; Concentration 100 μM): 86% | % Inhibition (CMV polymerase; Concentration 100 μM, 100 µM): 91% | inhibition at 200 µM (CMV polymerase; Concentration 200 μM): 89% | % Inhibition (CMV polymerase; Concentration 200 μM, 200 µM): 88% | melting point: 269 to 272 °C

N#CCNC(=O)c1ccc2cccnc2c1O [drawing 130]
IC50 (HCMV; Human betaherpesvirus 5, Fibroblast, read-out: CMV Antiviral Assay IC50 (AV), Table 7): 3 µM

O=C(Nc1nc2ccc(Cl)cc2s1)c1ccc2cccnc2c1O [drawing 325]
IC50 (HCMV; [3]): 25.5 µM

Cc1ccc2c(Cl)cc(S(=O)(=O)NCCCN3CCOCC3)c(O)c2n1 [drawing 326]
IC50 (HCMV; [3]): 2.5 µM | IC50 (HCMV; [4]): 3.6 µM

Cc1ccc2c(Cl)cc(S(=O)(=O)NCc3ccccn3)c(O)c2n1 [drawing 327]
IC50 (HCMV; [3]): 14.4 µM | IC50 (HCMV; [4]): 14.1 µM and 9.4 µM

Cc1ccc2c(Cl)cc(S(=O)(=O)NCCCCc3ccccc3)c(O)c2n1 [drawing 328]
IC50 (HCMV; [3]): 3.5 µM

Cc1ccc2c(Cl)cc(S(=O)(=O)NCCc3ccccn3)c(O)c2n1 [drawing 329]
IC50 (HCMV; [3]): 14.6 µM

N#Cc1ccc(NC(=O)c2ccc3cccnc3c2O)cc1 [drawing 331]
IC50 (HCMV; Human betaherpesvirus 5, Fibroblast, Table 12, read-out: CMV Antiviral Assay IC50 (AV)): 3.9 µM

Reference: patent US6500842B1, “8-hydroxy-7-substituted quinolines as anti-viral agents” (Pharmacia & Upjohn Company, priority 1996, dated 2002)
